Source: patent US9475798B2, “Azetidine estrogen receptor modulators and uses thereof” (Genentech, Inc., priority 2013, dated 2016)
Where two headings read alike, the source gives them in different places.

Assays:
MCF-7 cells = assay: Breast Cancer Cell Viability Assay (MCF7, CellTiter-Glo); conditions: for MCF7 Viability Assay: % Viability relative to Fulvestrant: 5 days, 100-{100*[(100-% viability of Example)/(100-% viability of Fulvestrant)]};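 for all read-outs here: CellTiter-Glo luminescence read-out, background from cell-free medium subtracted, viability expressed against untreated cells, ten-point 1:5 compound dilution series spanning 10 to 0.000005 µM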
ER-α = target: T1, ER-α (Homo sapiens, UniProt P03372); assay: Breast Cancer Cell ER-α In-Cell Western Assay (SP1); type: cell-based; conditions: MCF7 cells, 4 hours; 100-{100*[(100-% ER level of Example)/(100-% ER level of Fulvestrant)]}
T1 construct: endogenous in cells; host or cells: MCF7
T1 sequence (P03372 1-595): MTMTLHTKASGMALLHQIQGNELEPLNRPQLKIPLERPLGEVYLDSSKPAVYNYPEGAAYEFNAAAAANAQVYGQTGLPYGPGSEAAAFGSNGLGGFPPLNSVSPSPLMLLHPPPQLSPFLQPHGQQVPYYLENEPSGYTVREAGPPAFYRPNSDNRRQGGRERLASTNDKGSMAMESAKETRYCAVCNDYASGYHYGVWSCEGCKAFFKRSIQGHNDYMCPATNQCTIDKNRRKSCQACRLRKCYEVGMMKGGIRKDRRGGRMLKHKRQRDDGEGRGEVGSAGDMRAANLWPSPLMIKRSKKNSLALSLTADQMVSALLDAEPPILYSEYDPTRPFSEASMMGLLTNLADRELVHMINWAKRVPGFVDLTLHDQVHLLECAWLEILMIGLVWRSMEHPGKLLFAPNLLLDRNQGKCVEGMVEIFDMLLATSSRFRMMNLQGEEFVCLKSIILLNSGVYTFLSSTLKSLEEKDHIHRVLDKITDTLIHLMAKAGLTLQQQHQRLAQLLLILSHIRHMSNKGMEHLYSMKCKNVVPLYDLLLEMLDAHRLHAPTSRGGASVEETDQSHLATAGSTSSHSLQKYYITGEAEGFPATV
Method: MCF7 cells were trypsinized and washed twice in Phenol Red Free RPMI containing 5% Charcoal Dextran Stripped serum with 20 mM HEPES and NEAA, then adjusted to a concentration of 200,000 cells per mL with the same medium. […] At 4 hours post compound addition, the cells were fixed by adding 16 μL of 30% formalin to the 32 μL of cells and compound (10% formalin final concentration) for 20 minutes. Cells were then washed twice with PBS Tween 0.1% and then permeabilized in PBS 0.1% Triton (50 μl/well) for additional 15 minutes. The PBS 0.1% triton was decanted, and the cells were washed: LI-COR blocking buffer (50 μL/well) was added, the plate was spun at 3000 rpm, and then the blocking buffer was decanted. Additional LI-COR blocking buffer (50 μL/well) was added, and the cells were incubated overnight at 4° C. The blocking buffer was decanted, and the cells were incubated overnight at 4° C. with SP1 (Thermo Scientific) anti-ER rabbit monoclonal antibody diluted 1:1000 in LI-COR blocking buffer/0.1% Tween-20. Wells which were treated with blocking buffer with Tween but no antibody were used as a background control. Wells were washed twice with PBS Tween 0.1% to remove free SP1 antibodies, and the cells were incubated at room temp for 60-90 minutes in LI-COR goat anti-rabbit IRDye™ 800 CW (1:1000) and DRAQ5 DNA dye (1:10000 of 5 mM stock solution) diluted in LI-COR blocking buffer containing 0.1% Tween-20 and 0.01% SDS. Cells were then washed with 0.1% Tween-20/PBS three times. Plates were scanned on a LI-COR Odyssey infrared imaging system. Integrated intensities in the 800 nm channel and 700 nm channel were measured to determine levels of ER-α and DNA respectively. Percent ER levels were determined as follows: (Integrated intensity 800 nm sample/integrated intensity 700 nm sample)/(Integrated intensity 800 nm untreated cells/integrated intensity 700 nm untreated cells)×100=% ER-α levels.

[1] = read-out: MCF7 Viability Assay IC50, 5 days' compound exposure

Row | SMILES | MCF7 Viability Assay: % Viability relative to Fulvestrant (MCF-7 cells) | IC50 (MCF-7 cells; [1]) | ER-α In-Cell Western Assay (SP1): % ER-α remaining relative to Fulvestrant (ER-α) | IC50 (MCF-7 cells; read-out: MCF7 Viability Assay IC50, 5 days' compound exposure, cell printed without unit)
1 | CC1=C(c2ccc(Cl)cc2)C(c2ccc(OC[C@H](C)N3CC[C@@H](C)C3)cc2)Oc2ccc(O)cc21 (stereo partly drawn) [3-(4-chlorophenyl)-4-methyl-2-(4-((S)-2-((R)-3-methylpyrrolidin-1-yl)propoxy)phenyl)-2H-chromen-6-ol, reference compound] | 14% | 1.9 nM | 15% | –
2 | CC1=C(c2ccc(F)cc2)[C@@H](c2ccc(OC[C@H](C)N3CC[C@@H](C)C3)cc2)Oc2ccc(O)cc21 [(R)-3-(4-fluorophenyl)-4-methyl-2-(4-((S)-2-((R)-3-methylpyrrolidin-1-yl)propoxy)phenyl)-2H-chromen-6-ol, reference compound] | – | – | 13% | –
3 | CC1=C(c2ccc(F)c(F)c2)C(c2ccc(OCCN3CC(CF)C3)cc2)Oc2ccc(O)cc21 (stereo not shown) [Example 10, 3-(3,4-Difluorophenyl)-2-(4-(2-(3-(fluoromethyl)azetidin-1-yl)ethoxy)phenyl)-4-methyl-2H-chromen-6-ol] | 2% | 0.41 nM | 1% | –
4 | CC1=C(c2ccc(F)cc2)C(c2ccc(OCCN3CC(CF)C3)cc2)Oc2ccc(O)cc21 (stereo not shown) [Example 1, 2-(4-(2-(3-(Fluoromethyl)azetidin-1-yl)ethoxy)phenyl)-3-(4-fluorophenyl)-4-methyl-2H-chromen-6-ol] | 3% | 0.36 nM | – | –
5 | CC1=C(c2ccc(F)cc2)[C@H](c2ccc(OC[C@H](C)N3CC[C@@H](C)C3)cc2)Oc2ccc(O)cc21 [(S)-3-(4-fluorophenyl)-4-methyl-2-(4-((S)-2-((R)-3-methylpyrrolidin-1-yl)propoxy)phenyl)-2H-chromen-6-ol, reference compound] | 14% | – | 16% | 0.3 nM
6 | CC1=C(c2ccc(F)cc2)C(c2ccc(OC[C@H](C)N3CC[C@@H](C)C3)cc2)Oc2ccc(O)cc21 (stereo partly drawn) [3-(4-fluorophenyl)-4-methyl-2-(4-((S)-2-((R)-3-methylpyrrolidin-1-yl)propoxy)phenyl)-2H-chromen-6-ol, reference compound] | 17% | 0.4 nM | 18% | –
7 | CC1=C(c2ccc(F)cc2)C(c2ccc(OCCN3CC(CF)C3)cc2)Oc2cc(O)ccc21 (stereo not shown) [Example 25, 2-(4-(2-(3-(Fluoromethyl)azetidin-1-yl)ethoxy)phenyl)-3-(4-fluorophenyl)-4-methyl-2H-chromen-7-ol] | 7% | 0.3 nM | 2% | –
8 | CC1=C(c2ccc(Cl)c(F)c2)C(c2ccc(OCCN3CC(CF)C3)cc2)Oc2ccc(O)cc21 (stereo not shown) [Example 16, 3-(4-Chloro-3-fluorophenyl)-2-(4-(2-(3-(fluoromethyl)azetidin-1-yl)ethoxy)phenyl)-4-methyl-2H-chromen-6-ol] | 1% | 0.71 nM | 1% | –
9 | CC1=C(c2ccc(F)cc2)[C@@H](c2ccc(OCCN3CC(CF)C3)cc2)Oc2ccc(O)cc21 (single isomer, unassigned) [Example 2] | 3% | 26 nM | – | –
10 | CC1=C(c2cc(F)c(F)c(F)c2)C(c2ccc(OCCN3CC(CF)C3)cc2)Oc2ccc(O)cc21 (stereo not shown) [Example 19, 2-(4-(2-(3-(Fluoromethyl)azetidin-1-yl)ethoxy)phenyl)-4-methyl-3-(3,4,5-trifluorophenyl)-2H-chromen-6-ol] | 0% | 0.42 nM | 0% | –
11 | CC1=C(c2ccc(C#N)cc2)C(c2ccc(OCCN3CC(CF)C3)cc2)Oc2ccc(O)cc21 (stereo not shown) [Example 7, 4-(2-(4-(2-(3-(Fluoromethyl)azetidin-1-yl)ethoxy)phenyl)-6-hydroxy-4-methyl-2H-chromen-3-yl)benzonitrile] | 0% | 3.5 nM | 2% | –
12 | CC1=C(c2cccc(O)c2)C(c2ccc(OCCN3CC(C)C3)cc2)Oc2ccc(O)cc21 (stereo not shown) [Example 31, 3-(3-Hydroxyphenyl)-4-methyl-2-(4-(2-(3-methylazetidin-1-yl)ethoxy)phenyl)-2H-chromen-6-ol] | 13% | 0.2 nM | 14% | –
13 | CC1=C(c2ccc(C(F)(F)F)cc2)C(c2ccc(OCCN3CC(CF)C3)cc2)Oc2ccc(O)cc21 (stereo not shown) [Example 22, 2-(4-(2-(3-(Fluoromethyl)azetidin-1-yl)ethoxy)phenyl)-4-methyl-3-(4-(trifluoromethyl)phenyl)-2H-chromen-6-ol] | 6% | 12 nM | 8% | –
14 | CC1=C(c2ccc(F)c(F)c2)C(c2ccc(OC[C@H](C)N3CC[C@@H](C)C3)cc2)Oc2ccc(O)cc21 (stereo partly drawn) [3-(3,4-difluorophenyl)-4-methyl-2-(4-((S)-2-((R)-3-methylpyrrolidin-1-yl)propoxy)phenyl)-2H-chromen-6-ol, reference compound] | 19% | 0.7 nM | 14% | –
15 | CC1=C(c2ccc(Cl)cc2)C(c2ccc(OCCN3CC(CF)C3)cc2)Oc2ccc(O)cc21 (stereo not shown) [Example 4, 3-(4-Chlorophenyl)-2-(4-(2-(3-(fluoromethyl)azetidin-1-yl)ethoxy)phenyl)-4-methyl-2H-chromen-6-ol] | 3% | 1.2 nM | 3% | –
16 | CC1=C(c2ccc(C#N)cc2)C(c2ccc(OC[C@H](C)N3CC[C@@H](C)C3)cc2)Oc2ccc(O)cc21 (stereo partly drawn) [4-(6-hydroxy-4-methyl-2-(4-((S)-2-((R)-3-methylpyrrolidin-1-yl)propoxy)phenyl)-2H-chromen-3-yl)benzonitrile, reference compound] | 15% | 10 nM | – | –
17 | CC1=C(c2ccc(Cl)cc2)C(c2ccc(OCCN3CC(CF)C3)cc2)Oc2cc(O)ccc21 (stereo not shown) [Example 28, 3-(4-Chlorophenyl)-2-(4-(2-(3-(fluoromethyl)azetidin-1-yl)ethoxy)phenyl)-4-methyl-2H-chromen-7-ol] | 6% | 0.8 nM | 3% | –
18 | CC1=C(c2ccc(F)c(Cl)c2)C(c2ccc(OCCN3CC(CF)C3)cc2)Oc2ccc(O)cc21 (stereo not shown) [Example 13, 3-(3-Chloro-4-fluorophenyl)-2-(4-(2-(3-(fluoromethyl)azetidin-1-yl)ethoxy)phenyl)-4-methyl-2H-chromen-6-ol] | 1% | 0.53 nM | 2% | –
